# Patent publication US20130072474A1, “TREATMENT OF DEMENTIA OF ALZHEIMER'S TYPE WITH MASITINIB” (AB SCIENCE, priority 2010, published 2013)
# Entries after “also recorded” stand apart in the source; their conditions may differ.
# Legend:
# [1] = target: ABL (Homo sapiens, UniProt P00519); conditions: at therapeutic doses of masitinib; cited from earlier work
# [2] = system: patients suffering from mild to moderate dementia of Alzheimer's type; test: Phase 2 study, CDR; assay type: in vivo, human; conditions: for CDR No change, rate of patients / CDR Response (Decrease >0), rate of patients / CDR Worsening (Increase >0), rate of patients / CDR score 0, rate of patients / CDR score 0.5, rate of patients / CDR score 1, rate of patients / CDR score 2, rate of patients / CDR score 3, rate of patients: ITT population, Observed Cases
# Source text: (§1) A multicenter, randomized, double-blind, placebo-controlled, parallel-group phase 2 study evaluating the activity of masitinib given orally for 24 weeks has been performed in patients suffering from mild to moderate dementia of Alzheimer's type (protocol period completed, extension ongoing).
# Patients: Patients enrolled in this study had dementia of Alzheimer's type (according to DSM IV criteria), probable Alzheimer's disease according to NINCDS-ADRDA criteria, MMSE≧12 and ≦26, and CDR of 1 or 2. […] Exclusion criteria included inadequate organ function (defined via blood test levels), dementia due to any other causes, uncontrolled depression, psychosis, delusions or delirium.
# (§2) Treatment: In addition to a stable dose of acetylcholinesterase inhibitors and/or memantine, patients received masitinib or placebo, supplied as 100 and 200 mg tablets, per os for 24 weeks. Patients received masitinib or placebo initially at a daily total dose of 3 mg/kg or 6 mg/kg, administered twice daily with meals. Dose could be increased or decreased by 1.5 mg/kg/day depending on efficacy and toxicity assessments. Five patients were allocated to each masitinib dose for every three placebo patients. Treatment with any registered or putative cognitive enhancer or disease modifier (other than donepezil, galantamine, rivastigmine or memantine), or any investigational therapies was not allowed.
# CDR: The CDR is a five-point categorical rating evaluating severity of dementia. The 5-point score is useful for globally staging the level of impairment: 0=No impairment, 0.5, 1, 2, and 3 indicate very mild, mild, moderate and severe dementia respectively, in the following six areas: memory, orientation, judgment, community affairs, home and hobbies, and personal care (Morris J C, 1997).
# Statistical analyses: Efficacy was analyzed in the intent-to-treat (ITT) (all randomized patients, according to group of randomization) and per protocol (PP) (all patients without a major protocol deviation) populations. […] Efficacy criteria were analyzed using descriptive statistics, numbers and rates for categorical and discontinuous variables, parametric and non-parametric distribution elements for continuous variables.
# Results are presented for the ITT population in the OC dataset (with LOCF for Centre #21 at Week 24).
# The overall CDR score, calculated through the use of an algorithm, is useful for characterizing and tracking a patient's level of impairment/dementia: 0=Normal, 0.5=Very Mild Dementia, 1=Mild Dementia, 2=Moderate Dementia, 3=Severe Dementia.
# [3] = system: patients suffering from mild to moderate dementia of Alzheimer's type; test: Phase 2 study, safety (adverse events, NCI CTCAE v3.0); assay type: in vivo, human; conditions: for At least one AE, All, patients: regardless of causality
# Source text: as §1
# Patients: Patients enrolled in this study had dementia of Alzheimer's type (according to DSM IV criteria), probable Alzheimer's disease according to NINCDS-ADRDA criteria, MMSE≧12 and ≦26, and CDR of 1 or 2. Patients had been receiving a stable dose of acetylcholinesterase inhibitors for a minimum of 6 months and/or memantine for a minimum of 3 months. Exclusion criteria included inadequate organ function (defined via blood test levels), dementia due to any other causes, uncontrolled depression, psychosis, delusions or delirium.
# as §2
# Safety was monitored throughout the study, and graded according to the NCI CTCAE v3.0 in all patients receiving at least one dose of masitinib. Safety assessment was based upon the frequency and severity of adverse events (AE), regardless of causality.
# Safety was assessed in the safety population (all patients receiving at least one drug administration), with descriptive statistics.
# Chain of ABL (P00519 whole entry): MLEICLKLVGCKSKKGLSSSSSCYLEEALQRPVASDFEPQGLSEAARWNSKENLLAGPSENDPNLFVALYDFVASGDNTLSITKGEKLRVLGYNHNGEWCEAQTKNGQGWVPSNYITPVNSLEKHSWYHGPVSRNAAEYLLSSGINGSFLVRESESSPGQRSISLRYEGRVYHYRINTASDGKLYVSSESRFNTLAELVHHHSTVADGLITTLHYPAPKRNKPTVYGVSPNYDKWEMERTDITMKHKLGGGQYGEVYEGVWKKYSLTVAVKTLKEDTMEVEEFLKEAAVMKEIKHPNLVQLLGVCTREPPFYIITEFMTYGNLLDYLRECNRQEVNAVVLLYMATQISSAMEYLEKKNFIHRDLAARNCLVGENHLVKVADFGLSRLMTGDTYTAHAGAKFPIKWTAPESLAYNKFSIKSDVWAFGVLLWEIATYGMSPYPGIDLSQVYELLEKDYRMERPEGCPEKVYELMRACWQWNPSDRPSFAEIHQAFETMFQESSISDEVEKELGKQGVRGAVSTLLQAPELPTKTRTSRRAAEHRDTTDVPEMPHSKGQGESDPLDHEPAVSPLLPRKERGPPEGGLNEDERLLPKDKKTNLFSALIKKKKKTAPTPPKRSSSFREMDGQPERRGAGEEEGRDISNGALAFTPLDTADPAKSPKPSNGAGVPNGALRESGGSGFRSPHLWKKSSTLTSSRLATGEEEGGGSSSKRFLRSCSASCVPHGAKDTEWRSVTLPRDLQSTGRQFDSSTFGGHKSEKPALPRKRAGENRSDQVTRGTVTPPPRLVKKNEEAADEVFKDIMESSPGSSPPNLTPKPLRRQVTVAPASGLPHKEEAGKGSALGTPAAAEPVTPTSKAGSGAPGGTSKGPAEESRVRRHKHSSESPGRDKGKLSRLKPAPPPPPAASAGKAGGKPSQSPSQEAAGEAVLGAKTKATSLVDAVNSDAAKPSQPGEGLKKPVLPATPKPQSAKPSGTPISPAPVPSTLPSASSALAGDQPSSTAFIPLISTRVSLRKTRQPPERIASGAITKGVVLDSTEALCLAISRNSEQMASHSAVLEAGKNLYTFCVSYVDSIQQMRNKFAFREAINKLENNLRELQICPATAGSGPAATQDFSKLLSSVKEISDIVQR
compound,measurement,setting,value
"Cc1ccc(NC(=O)c2ccc(CN3CCN(C)CC3)cc2)cc1Nc1nc(-c2cccnc2)cs1 [masitinib, 4-(4-methylpiperazin-1-ylmethyl)-N-[4-methyl-3-(4-pyridin-3ylthiazol-2-ylamino)phenyl]benzamide]",inhibition of ABL,[1],not inhibited at therapeutic doses
same,"CDR No change, rate of patients",[2]; W 4,9 (90.0%)
same,"CDR Response (Decrease >0), rate of patients",[2]; W 4,0 (0.0%)
same,"CDR Worsening (Increase >0), rate of patients",[2]; W 4,1 (10.0%)
same,"CDR score 0, rate of patients",[2]; W 4,0 (0.0%)
same,"CDR score 0.5, rate of patients",[2]; W 4,0 (0.0%)
same,"CDR score 1, rate of patients",[2]; W 4,7 (70.0%)
same,"CDR score 2, rate of patients",[2]; W 4,3 (30.0%)
same,"CDR score 3, rate of patients",[2]; W 4,0 (0.0%)
same,"CDR No change, rate of patients",[2]; W 8,7 (87.5%)
same,"CDR Response (Decrease >0), rate of patients",[2]; W 8,0 (0.0%)
same,"CDR Worsening (Increase >0), rate of patients",[2]; W 8,1 (12.5%)
same,"CDR score 0, rate of patients",[2]; W 8,0 (0.0%)
same,"CDR score 0.5, rate of patients",[2]; W 8,0 (0.0%)
same,"CDR score 1, rate of patients",[2]; W 8,6 (75.0%)
same,"CDR score 2, rate of patients",[2]; W 8,2 (25.0%)
same,"CDR score 3, rate of patients",[2]; W 8,0 (0.0%)
same,"CDR No change, rate of patients",[2]; W 12,14 (82.4%)
same,"CDR Response (Decrease >0), rate of patients",[2]; W 12,2 (11.8%)
same,"CDR Worsening (Increase >0), rate of patients",[2]; W 12,1 (5.9%)
same,"CDR score 0, rate of patients",[2]; W 12,0 (0.0%)
same,"CDR score 0.5, rate of patients",[2]; W 12,1 (5.9%)
same,"CDR score 1, rate of patients",[2]; W 12,15 (88.2%)
same,"CDR score 2, rate of patients",[2]; W 12,1 (5.9%)
same,"CDR score 3, rate of patients",[2]; W 12,0 (0.0%)
same,"CDR No change, rate of patients",[2]; W 24,6 (66.7%)
same,"CDR Response (Decrease >0), rate of patients",[2]; W 24,2 (22.2%)
same,"CDR Worsening (Increase >0), rate of patients",[2]; W 24,1 (11.1%)
same,"CDR score 0, rate of patients",[2]; W 24,0 (0.0%)
same,"CDR score 0.5, rate of patients",[2]; W 24,2 (22.2%)
same,"CDR score 1, rate of patients",[2]; W 24,6 (66.7%)
same,"CDR score 2, rate of patients",[2]; W 24,1 (11.1%)
same,"CDR score 3, rate of patients",[2]; W 24,0 (0.0%)
same,"CDR No change, rate of patients",[2]; W 24 LOCF center 21,12 (75.0%)
same,"CDR Response (Decrease >0), rate of patients",[2]; W 24 LOCF center 21,3 (18.8%)
same,"CDR Worsening (Increase >0), rate of patients",[2]; W 24 LOCF center 21,6.3%
same,"CDR score 0, rate of patients",[2]; W 24 LOCF center 21,0 (0.0%)
same,"CDR score 0.5, rate of patients",[2]; W 24 LOCF center 21,2 (12.5%)
same,"CDR score 1, rate of patients",[2]; W 24 LOCF center 21,13 (81.3%)
same,"CDR score 2, rate of patients",[2]; W 24 LOCF center 21,1 (6.3%)
same,"CDR score 3, rate of patients",[2]; W 24 LOCF center 21,0 (0.0%)
same,"CDR Worsening (Increase >0), rate of patients","[2]; W 24 LOCF center 21, listed as AB1010",1 (6.3%)
same,Frequency of patients with CDR Score 0.5-1,[2]; Week 24,94%
same,dose effect on frequency of overall and individual AEs,[3]; 3 versus 6 mg/kg/day arms,no dose effect in terms of toxicity
same,patients who experienced edema,[3]; 26 masitinib-treated patients,27%
same,patients who experienced nausea/vomiting,[3]; 26 masitinib-treated patients,27%
same,patients who experienced rash,[3]; 26 masitinib-treated patients,15%
same,patients with at least one AE considered related,[3]; 26 masitinib-treated patients,58%
same,patients with at least one related serious adverse event,[3]; 26 masitinib-treated patients,19%
same,patients with related AEs leading to treatment discontinuation,[3]; 26 masitinib-treated patients,35%
same,"Anemia, All, patients",[3]; N = 26,(50.0%)
same,"Anemia, Moderate, patients",[3]; N = 26,(7.7%)
same,"Anorexia, All, patients",[3]; N = 26,(15.4%)
same,"Anorexia, Moderate, patients",[3]; N = 26,(7.7%)
same,"Anorexia, Severe, patients",[3]; N = 26,(7.7%)
same,"Asthenia, All, patients",[3]; N = 26,(11.5%)
same,"Asthenia, Moderate, patients",[3]; N = 26,(3.8%)
same,"Asthenia, Severe, patients",[3]; N = 26,(3.8%)
same,"At least one AE, Moderate, patients",[3]; N = 26,(42.3%)
same,"At least one AE, Severe, patients",[3]; N = 26,15%
same,"Depression, All, patients",[3]; N = 26,(7.7%)
same,"Diarrhea, All, patients",[3]; N = 26,23%
same,"Diarrhea, Moderate, patients",[3]; N = 26,(11.5%)
same,"Eyelid edema, All, patients",[3]; N = 26,(15.4%)
same,"Eyelid edema, Moderate, patients",[3]; N = 26,(7.7%)
same,"Leukopenia, All, patients",[3]; N = 26,(26.9%)
same,"Leukopenia, Moderate, patients",[3]; N = 26,(3.8%)
same,"Nausea, All, patients",[3]; N = 26,(15.4%)
same,"Nausea, Moderate, patients",[3]; N = 26,(3.8%)
same,"Nausea, Severe, patients",[3]; N = 26,(3.8%)
same,"Neutropenia, All, patients",[3]; N = 26,(42.3%)
same,"Peripheral edema, All, patients",[3]; N = 26,(19.2%)
same,"Peripheral edema, Moderate, patients",[3]; N = 26,(11.5%)
same,"Thrombocytopenia, All, patients",[3]; N = 26,(15.4%)
same,"Vomiting, All, patients",[3]; N = 26,(11.5%)
same,"Vomiting, Moderate, patients",[3]; N = 26,(7.7%)
same,"Weight Decreased, All, patients",[3]; N = 26,(7.7%)
same,"Weight Decreased, Moderate, patients",[3]; N = 26,(7.7%)
same,"At least one AE, Severe, patients","[3]; N = 26, listed as Masitinib",(15.4%)
same,"Diarrhea, All, patients","[3]; N = 26, listed as Masitinib",(23.1%)
same,"At least one AE, All, patients",[3]; N = 26,65%
same,"At least one AE, All, patients","[3]; N = 26, listed as Masitinib",(65.4%)
same,patients in the masitinib arm who withdrew due to related AEs,"[3]; before completion of the 24-week treatment period, of 17 masitinib patients who withdrew",41%
same,patients with dose reductions due to AEs (all considered related),[3]; masitinib-treated patients,four
same,patients with severe transaminase elevation,[3]; masitinib-treated patients,One
same,deaths,[3]; phase 2 study,No deaths were reported; also recorded: No patients died
